pIC50: −log10 of the molar value.
Test system: not listed separately
Assay: Cytotoxicity against human RPMI8226 cells assessed as reduction in cell viability after 72 hrs by MTT assay
Assay type: functional, cell-based
Conditions: RPMI-8226, 72 h

SMILES	pIC50
Cc1c(C)c2c(c(C)c1O)CCC(C)(C(=O)NC1CC(C)(C)N([O])C1(C)C)O2 (stereo unspecified)	4.24
Cc1c(C)c2c(c(C)c1O)CCC(C)(C(=O)NC1CC(C)(C)N([O])C(C)(C)C1)O2 (stereo unspecified)	4.41

Test system: not listed separately
Assay: Genotoxicity in Escherichia coli PQ37 expressing lacZ gene assessed as ratio of inducible beta-galactosidase activity to alkaline phosphatase activity at 30 mM after 2 hrs by SOS-chromotest relative to control
Assay type: toxicity
Conditions: Escherichia coli PQ37 cells expressing lacZ gene, read-out: FC

SMILES	fold induction at 2 h, 30000 µM
Cc1c(C)c2c(c(C)c1O)CCC(C)(C(=O)NC1CC(C)(C)N([O])C1(C)C)O2 (stereo unspecified)	1.2
Cc1c(C)c2c(c(C)c1O)CCC(C)(C(=O)NC1CC(C)(C)N([O])C(C)(C)C1)O2 (stereo unspecified)	1.4

Test system: Salmonella typhimurium
Assay: Genotoxicity in Salmonella typhimurium TA102 harboring […] mutant assessed as frequency of reversion from histidine auxotrophy to prototrophy at 30 mM after 48 hrs by Ames test (reference value: 209 +/- 10 No _unit)
Assay type: toxicity, organism-based
Conditions: salmonella enterica subsp. enterica serovar typhimurium, 30000 µM

SMILES	Activity
Cc1c(C)c2c(c(C)c1O)CCC(C)(C(=O)NC1CC(C)(C)N([O])C1(C)C)O2 (stereo unspecified)	221
Cc1c(C)c2c(c(C)c1O)CCC(C)(C(=O)NC1CC(C)(C)N([O])C(C)(C)C1)O2 (stereo unspecified)	218

Test system: not listed separately
Assay: Ratio of IC50 for human MT4 cells to concentration causing antioxidant activity in Salmonella typhimurium TA102 harboring […] mutant
Assay type: functional
Conditions: not given

SMILES	Ratio
Cc1c(C)c2c(c(C)c1O)CCC(C)(C(=O)NC1CC(C)(C)N([O])C1(C)C)O2 (stereo unspecified)	100 - 1000
Cc1c(C)c2c(c(C)c1O)CCC(C)(C(=O)NC1CC(C)(C)N([O])C(C)(C)C1)O2 (stereo unspecified)	100 - 1000

Test system: not listed separately
Assay: Cytotoxicity against human MCF7 cells assessed as reduction in cell viability after 72 hrs by MTT assay
Assay type: functional, cell-based
Conditions: MCF7, 72 h

SMILES	pIC50
Cc1c(C)c2c(c(C)c1O)CCC(C)(C(=O)NC1CC(C)(C)N([O])C1(C)C)O2 (stereo unspecified)	4.24
Cc1c(C)c2c(c(C)c1O)CCC(C)(C(=O)NC1CC(C)(C)N([O])C(C)(C)C1)O2 (stereo unspecified)	4.24

Test system: not listed separately
Assay: Cytotoxicity against mouse LMTK cells assessed as reduction in cell viability after 72 hrs by MTT assay
Assay type: toxicity
Conditions: not given

SMILES	IC50 at 72 h [µM]
Cc1c(C)c2c(c(C)c1O)CCC(C)(C(=O)NC1CC(C)(C)N([O])C1(C)C)O2 (stereo unspecified)	> 300
Cc1c(C)c2c(c(C)c1O)CCC(C)(C(=O)NC1CC(C)(C)N([O])C(C)(C)C1)O2 (stereo unspecified)	252

Test system: not listed separately
Assay: Cytotoxicity against human HepG2 cells assessed as reduction in cell viability after 72 hrs by MTT assay
Assay type: functional, cell-based
Conditions: HepG2, 72 h

SMILES	pIC50
Cc1c(C)c2c(c(C)c1O)CCC(C)(C(=O)NC1CC(C)(C)N([O])C1(C)C)O2 (stereo unspecified)	3.84
Cc1c(C)c2c(c(C)c1O)CCC(C)(C(=O)NC1CC(C)(C)N([O])C(C)(C)C1)O2 (stereo unspecified)	4.27

Test system: not listed separately
Assay: Ratio of IC50 for human CEM13 cells to concentration causing antioxidant activity in Salmonella typhimurium TA102 harboring […] mutant
Assay type: functional
Conditions: not given

SMILES	Ratio
Cc1c(C)c2c(c(C)c1O)CCC(C)(C(=O)NC1CC(C)(C)N([O])C1(C)C)O2 (stereo unspecified)	100 - 1000
Cc1c(C)c2c(c(C)c1O)CCC(C)(C(=O)NC1CC(C)(C)N([O])C(C)(C)C1)O2 (stereo unspecified)	100 - 1000

Test system: not listed separately
Assay: Ratio of IC50 for human MCF7 cells to concentration causing antioxidant activity in Salmonella typhimurium TA102 harboring […] mutant
Assay type: functional
Conditions: not given

SMILES	Ratio
Cc1c(C)c2c(c(C)c1O)CCC(C)(C(=O)NC1CC(C)(C)N([O])C1(C)C)O2 (stereo unspecified)	100 - 1000
Cc1c(C)c2c(c(C)c1O)CCC(C)(C(=O)NC1CC(C)(C)N([O])C(C)(C)C1)O2 (stereo unspecified)	100 - 1000

Test system: Salmonella enterica subsp. enterica serovar Typhimurium
Assay: Antioxidant activity in Salmonella typhimurium TA102 harboring […] mutant assessed as inhibition of t-BuO2H-dependant mutant formation at 0.3 uM preincubated with compound followed by t-BuO2H addition after 48 hrs by Ames test
Assay type: functional
Conditions: not given

SMILES	inhibition [%]
Cc1c(C)c2c(c(C)c1O)CCC(C)(C(=O)NC1CC(C)(C)N([O])C1(C)C)O2 (stereo unspecified)	55.2
Cc1c(C)c2c(c(C)c1O)CCC(C)(C(=O)NC1CC(C)(C)N([O])C(C)(C)C1)O2 (stereo unspecified)	11

Test system: not listed separately
Assay: Cytotoxicity against human CEM13 cells assessed as reduction in cell viability at 300 uM after 72 hrs by MTT assay
Assay type: functional
Conditions: CEM13, 72 h

SMILES	inhibition at 300 µM [%]
Cc1c(C)c2c(c(C)c1O)CCC(C)(C(=O)NC1CC(C)(C)N([O])C1(C)C)O2 (stereo unspecified)	45
Cc1c(C)c2c(c(C)c1O)CCC(C)(C(=O)NC1CC(C)(C)N([O])C(C)(C)C1)O2 (stereo unspecified)	32

Test system: Salmonella enterica subsp. enterica serovar Typhimurium
Assay: Antioxidant activity in Salmonella typhimurium TA102 harboring […] mutant assessed as inhibition of t-BuO2H-dependant mutant formation at 30 uM preincubated with compound followed by t-BuO2H addition after 48 hrs by Ames test
Assay type: functional
Conditions: not given

SMILES	inhibition [%]
Cc1c(C)c2c(c(C)c1O)CCC(C)(C(=O)NC1CC(C)(C)N([O])C1(C)C)O2 (stereo unspecified)	62
Cc1c(C)c2c(c(C)c1O)CCC(C)(C(=O)NC1CC(C)(C)N([O])C(C)(C)C1)O2 (stereo unspecified)	4.1

Test system: not listed separately
Assay: Ratio of IC50 for human U937 cells to concentration causing antioxidant activity in Salmonella typhimurium TA102 harboring […] mutant
Assay type: functional, U-937
Conditions: not given

SMILES	Ratio
Cc1c(C)c2c(c(C)c1O)CCC(C)(C(=O)NC1CC(C)(C)N([O])C1(C)C)O2 (stereo unspecified)	100 - 1000
Cc1c(C)c2c(c(C)c1O)CCC(C)(C(=O)NC1CC(C)(C)N([O])C(C)(C)C1)O2 (stereo unspecified)	100 - 1000

Test system: Salmonella enterica subsp. enterica serovar Typhimurium
Assay: Antioxidant activity in Salmonella typhimurium TA102 harboring […] mutant assessed as inhibition of t-BuO2H-dependant mutant formation at 3 uM preincubated with compound followed by t-BuO2H addition after 48 hrs by Ames test
Assay type: functional
Conditions: not given

SMILES	inhibition [%]
Cc1c(C)c2c(c(C)c1O)CCC(C)(C(=O)NC1CC(C)(C)N([O])C1(C)C)O2 (stereo unspecified)	57.6
Cc1c(C)c2c(c(C)c1O)CCC(C)(C(=O)NC1CC(C)(C)N([O])C(C)(C)C1)O2 (stereo unspecified)	21.5

Test system: not listed separately
Assay: Ratio of IC50 for human HEPG2 cells to concentration causing antioxidant activity in Salmonella typhimurium TA102 harboring […] mutant
Assay type: functional
Conditions: not given

SMILES	Ratio
Cc1c(C)c2c(c(C)c1O)CCC(C)(C(=O)NC1CC(C)(C)N([O])C1(C)C)O2 (stereo unspecified)	100 - 1000
Cc1c(C)c2c(c(C)c1O)CCC(C)(C(=O)NC1CC(C)(C)N([O])C(C)(C)C1)O2 (stereo unspecified)	100 - 1000

Test system: not listed separately
Assay: Cytotoxicity against hamster AG17-1 cells assessed as reduction in cell viability after 72 hrs by MTT assay
Assay type: toxicity, cell-based, Cricetulus griseus
Conditions: Chinese hamster

SMILES	IC50 at 72 h [µM]
Cc1c(C)c2c(c(C)c1O)CCC(C)(C(=O)NC1CC(C)(C)N([O])C1(C)C)O2 (stereo unspecified)	194
Cc1c(C)c2c(c(C)c1O)CCC(C)(C(=O)NC1CC(C)(C)N([O])C(C)(C)C1)O2 (stereo unspecified)	186

Test system: not listed separately
Assay: Cytotoxicity against human CEM13 cells assessed as reduction in cell viability after 72 hrs by MTT assay
Assay type: functional, cell-based
Conditions: CEM13, 72 h

SMILES	pIC50
Cc1c(C)c2c(c(C)c1O)CCC(C)(C(=O)NC1CC(C)(C)N([O])C1(C)C)O2 (stereo unspecified)	< 3.52
Cc1c(C)c2c(c(C)c1O)CCC(C)(C(=O)NC1CC(C)(C)N([O])C(C)(C)C1)O2 (stereo unspecified)	< 3.52

Test system: not listed separately
Assay: Cytotoxicity against human MT4 cells assessed as reduction in cell viability after 72 hrs by MTT assay
Assay type: functional, cell-based
Conditions: MT4, 72 h

SMILES	pIC50
Cc1c(C)c2c(c(C)c1O)CCC(C)(C(=O)NC1CC(C)(C)N([O])C1(C)C)O2 (stereo unspecified)	3.84
Cc1c(C)c2c(c(C)c1O)CCC(C)(C(=O)NC1CC(C)(C)N([O])C(C)(C)C1)O2 (stereo unspecified)	4.26

Test system: not listed separately
Assay: Cytotoxicity against human U937 cells assessed as reduction in cell viability after 72 hrs by MTT assay
Assay type: functional, cell-based
Conditions: U-937, 72 h

SMILES	pIC50
Cc1c(C)c2c(c(C)c1O)CCC(C)(C(=O)NC1CC(C)(C)N([O])C1(C)C)O2 (stereo unspecified)	4.01
Cc1c(C)c2c(c(C)c1O)CCC(C)(C(=O)NC1CC(C)(C)N([O])C(C)(C)C1)O2 (stereo unspecified)	3.79

Test system: not listed separately
Assay: Cytotoxicity against mouse LMTK cells assessed as reduction in cell viability at 300 uM after 72 hrs by MTT assay
Assay type: toxicity
Conditions: read-out: INH

SMILES	cytotoxicity at 72 h, 300 µM [%]
Cc1c(C)c2c(c(C)c1O)CCC(C)(C(=O)NC1CC(C)(C)N([O])C1(C)C)O2 (stereo unspecified)	32

Test system: not listed separately
Assay: Ratio of IC50 for human RPMI8226 cells to concentration causing antioxidant activity in Salmonella typhimurium TA102 harboring […] mutant
Assay type: functional, RPMI-8226
Conditions: not given

SMILES	Ratio
Cc1c(C)c2c(c(C)c1O)CCC(C)(C(=O)NC1CC(C)(C)N([O])C1(C)C)O2 (stereo unspecified)	100 - 1000
Cc1c(C)c2c(c(C)c1O)CCC(C)(C(=O)NC1CC(C)(C)N([O])C(C)(C)C1)O2 (stereo unspecified)	100 - 1000

From ChEMBL document CHEMBL3865792, “Antioxidant and antitumor activity of trolox, trolox succinate, and α-tocopheryl succinate conjugates with nitroxides” (Eur J Med Chem, 2016)
